Key:
Format in all cases: cell-based, human
FS1 cells = test: XTT cell viability assay, FS1 Sertoli control
Method: (§1) The following cell lines were used 2102EP, 2102EP-R, NCCIT, NCCIT-R (all ECs), TCam2 (seminoma cell line), FS1 (Sertoli cell line) and MPAF (human adult fibroblast cell line). Cells were cultivated as described previously. In brief, the ECs were cultivated in Dulbecco’s modified Eagle’s medium (DMEM) supplemented with 10% fetal bovine serum (FBS), 1% penicillin–streptomycin and […] L-glutamine. FS1 cells were grown in DMEM supplemented with 20% FSB, 1% penicillin–streptomycin, 200 mM L-glutamine and 1% nonessential amino acids (NEAA). MPAF cells were cultured in DMEM supplemented with 10% FBS, 1% penicillin–streptomycin, 200 mM L-glutamine and 1% NEAA. TCam2 cell line was cultured in RPMI medium supplemented with 10% FBS, 1% penicillin–streptomycin and […] L-glutamine. All cell lines were kept at 37 °C and 7.5% CO2. 2102EP and NCCIT were a kind gift from Prof. Dr. L. Looijenga (Princess Máxima Center for Pediatric Oncology, Utrecht, The Netherlands). Cisplatin-resistant lines 2102EP-R and NCCIT-R were obtained from PD Dr. F. Honecker (Breast and Tumor Center, ZeTup Silberturm, St. Gallen, Switzerland). MPAFs were a kind gift from […] (Bonn University, Institute of Reconstructive Neurobiology, Bonn, Germany). FS1 cells were obtained from Prof. Dr. V. Schumacher (Boston Children’s Hospital, Department of Urology; Harvard Medical School, Department of Surgery, Boston, MA, USA).
(§2) The assay was performed based on the reduction in XTT tetrazolium salt as described previously. In summary, 3000 cells were seeded per well of a 96-well cell culture plate in 100 µL of cell culture medium. The next day, cells were treated with CDK inhibitor or CDK degrader for 24/48/72 h. For XTT assay, 0.6 mg/mL XTT sodium salt was dissolved in cell culture medium (DMEM or RPMI) and supplemented with 25 µM electron carrier N-methyl dibenzopyrazine methyl sulfate (PMS). A total of 50 µL of XTT/PMS was added to each well and incubated for 4 h at 37 °C, 7.5% CO2. For readout, absorption was measured at 450 nm and 650 nm. Specific XTT signal (450 nm) was subtracted by nonspecific absorbance (650) and blank (cell culture medium). Averages of technical triplicates were calculated, and treated sample was referenced to the corresponding dimethyl sufoxide (DMSO) control. Experiment was repeated several times to obtain biological replicates. For statistical analysis, two-tailed Student’s t-test was applied.

2102EP-R cells = test: XTT cell viability assay, 2102EP-R (cisplatin-resistant)
Method: as §1, §2

NCCIT-R cells = test: XTT cell viability assay, NCCIT-R (cisplatin-resistant)
Method: as §1, §2

MPAF cells = test: XTT cell viability assay, MPAF fibroblast control; settings: for IC50: XTT viability
Method: as §1, §2

2102EP cells = test: XTT cell viability assay, 2102EP
Method: as §1, §2

[1] = tested on: TGCT and control cell lines; test: Hoechst-FACS cell cycle analysis; settings: 20 h; NVP2 and SY0351 10 nM, YKL-5-124 and THZ531 100 nM
Method: (§3) Cells were seeded in 6-well cell culture plates (1.5 × 10^5 cells/well). […] For cell cycle analysis, cells were harvested after 20 h of treatment and resuspended in PBS. Ice-cold methanol was added dropwise while shaking until 70% methanol v/v was reached. Cells were incubated for 2 h at 4 °C and subsequently washed twice with cold PBS. Staining (2 µg/mL Hoechst-33342, 50 µg/mL RNaseA in PBS) was performed for 30 min at 37 °C. The cell cycle distribution was measured in an FACS Canto (BD BioSciences, Heidelberg, Germany) and analyzed using FlowJo™ v10.8 Software (BD BioSciences, Heidelberg, Germany). For apoptosis analysis, PE AnnexinV Apoptosis Detection Kit with 7-AAD (BioLegend, San Diego, CA USA) was used according to the manufacturer’s manual. Measurement was performed in an FACS Canto while analysis was performed in the corresponding BD FACSDiva software^TM (BD BioSciences, Heidelberg, Germany). Two-tailed Student’s t-test was applied for calculation of significance.

[2] = tested on: TGCT and control cell lines; test: 7AAD/AnnexinV FACS apoptosis analysis, TGCT and control cell lines; settings: 100 nM, 24 and 48 h
Method: as §3

NCCIT cells = test: XTT cell viability assay, NCCIT
Method: as §1, §2

TCam2 cells = test: XTT cell viability assay, TCam2
Method: as §1, §2

TGCT cell lines = test: XTT cell viability assay, summarised over TGCT tumor cell lines
Method: as §1, §2

2102EP and NCCIT cells = test: 7AAD/AnnexinV FACS apoptosis analysis, 2102EP and NCCIT; settings: 10 nM, 24 and 48 h
Method: as §3

[3] = tested on: TCam2, FS1 and MPAF cells; test: 7AAD/AnnexinV FACS apoptosis analysis, TCam2, FS1 and MPAF; settings: 10 nM, 24 and 48 h
Method: as §3

With C=CC(=O)Nc1ccc(C(=O)Nc2[nH]nc3c2CN(C(=O)N[C@H](CN(C)C)c2ccccc2)C3(C)C)cc1 [YKL-5-124] the IC50 (FS1 cells; FS1, 24 h) was greater than 1000 nM, the IC50 (FS1 cells; FS1, 48 h) was greater than 1000 nM and the IC50 (FS1 cells; FS1, 72 h) was 95.2 nM. It also gave an IC50 (2102EP-R cells; 24 h) greater than 1000 nM, an IC50 (2102EP-R cells; 48 h) of 30.5 nM and an IC50 (2102EP-R cells; 72 h) of 23.6 nM. The IC50 (NCCIT-R cells; 24 h) was greater than 1000 nM, the IC50 (NCCIT-R cells; 48 h) was greater than 1000 nM and the IC50 (NCCIT-R cells; 72 h) was 178 nM. For the same molecule, the IC50 (MPAF cells; 24 h) was greater than 1000 nM, the IC50 (MPAF cells; 48 h) was greater than 1000 nM and the IC50 (MPAF cells; 72 h) was greater than 1000 nM. For the same molecule, the “viability (XTT)” value (MPAF cells; highest concentration tested (500 nM)) was “unaffected”, the IC50 (2102EP cells; 24 h) was 318 nM and the IC50 (2102EP cells; 48 h) was 43.6 nM. For the same molecule, the IC50 (2102EP cells; 72 h) was 17.2 nM, the “effect on cell cycle” value [1] was “only mild effects on the cell cycle” and the “apoptosis, fold change over DMSO control” value [2] was “up to 2.8 fold”. The “apoptosis, treatment vs control” value ([2]; FS1 and MPAF cells) was “almost no difference between treatment and control”, the IC50 (NCCIT cells; 24 h) was greater than 1000 nM and the IC50 (NCCIT cells; 48 h) was greater than 1000 nM. It also gave an IC50 (NCCIT cells; 72 h) of 121 nM, an IC50 (TCam2 cells; TCam2, 24 h) greater than 1000 nM and an IC50 (TCam2 cells; TCam2, 48 h) greater than 1000 nM. The IC50 (TCam2 cells; TCam2, 72 h) was 263 nM.

With CC(C)(C)c1cnc(CSc2cnc(NC(=O)C3CCN(CC(=O)NCCOCCOCCOCCNc4cccc5c4C(=O)N(C4CCC(=O)NC4=O)C5=O)CC3)s2)o1 (stereo not shown) [THAL-SNS-032] the IC50 (FS1 cells; Homo sapiens, FS1, 24 h) was greater than 1000 nM, the IC50 (FS1 cells; Homo sapiens, FS1, 48 h) was greater than 1000 nM and the IC50 (FS1 cells; Homo sapiens, FS1, 72 h) was greater than 1000 nM. For the same molecule, the IC50 (TGCT cell lines; Homo sapiens, 72 h, tumor (TGCT) cell lines, XTT viability, read-out: IC50 at 72 h, range over tumor cell lines) was 30 to 40 nM, the “viability (XTT)” value (MPAF cells; 1 and 10 nM) was “not affected” and the “viability (XTT)” value (MPAF cells; 100 and 500 nM) was “minimal decrease in viability”. For the same molecule, the IC50 (MPAF cells; Homo sapiens, Fibroblast, 24 h) was greater than 1000 nM, the IC50 (MPAF cells; Homo sapiens, Fibroblast, 48 h) was greater than 1000 nM and the IC50 (MPAF cells; Homo sapiens, Fibroblast, 72 h) was greater than 1000 nM. The IC50 (2102EP cells; Homo sapiens, 24 h) was 164 nM, the IC50 (2102EP cells; Homo sapiens, 48 h) was 39.5 nM and the IC50 (2102EP cells; Homo sapiens, 72 h) was 34.8 nM. The IC50 (NCCIT cells; Homo sapiens, 24 h) was 149 nM, the IC50 (NCCIT cells; Homo sapiens, 48 h) was 50.6 nM and the IC50 (NCCIT cells; Homo sapiens, 72 h) was 30.1 nM. The IC50 (TCam2 cells; Homo sapiens, TCam2, 24 h) was 140 nM, the IC50 (TCam2 cells; Homo sapiens, TCam2, 48 h) was 76.7 nM and the IC50 (TCam2 cells; Homo sapiens, TCam2, 72 h) was 39.6 nM.

With CCc1cnn2c(NCc3ccc[n+]([O-])c3)cc(N3CCCC[C@H]3CCO)nc12 [Dinaciclib, dinaciclib] the “viability (XTT)” value (TGCT cell lines; EC cell lines (2102EP, 2102EP-R, NCCIT, NCCIT-R), 1 nM) was “strong decrease in viability” and the “sensitivity (XTT viability)” value (MPAF cells) was “almost resistant”.

With COC[C@@H](C)N[C@H]1CC[C@H](Nc2cc(-c3cccc(NCC4(C#N)CCOCC4)n3)c(Cl)cn2)CC1 [NVP2] the “apoptosis, fold compared to the control” value (2102EP and NCCIT cells) was “up to 5.5 fold”, the IC50 (FS1 cells; FS1, 24 h) was 98.2 nM and the IC50 (FS1 cells; FS1, 48 h) was 33.5 nM. For the same molecule, the IC50 (FS1 cells; FS1, 72 h) was 8.9 nM, the IC50 (2102EP-R cells; 24 h) was 884 nM and the IC50 (2102EP-R cells; 48 h) was 11.2 nM. It also gave an IC50 (2102EP-R cells; 72 h) of 8.6 nM, an IC50 (NCCIT-R cells; 24 h) of 104 nM and an IC50 (NCCIT-R cells; 48 h) of 17.1 nM. For the same molecule, the IC50 (NCCIT-R cells; 72 h) was 12.2 nM, the “viability (XTT)” value (TGCT cell lines; TGCT cell lines and FS1 cell line, 10 nM) was “effectively reduced the viability” and the IC50 (MPAF cells; 24 h) was greater than 1000 nM. The IC50 (MPAF cells; 48 h) was greater than 1000 nM, the IC50 (MPAF cells; 72 h) was greater than 1000 nM and the IC50 (2102EP cells; 24 h) was 503 nM. For the same molecule, the IC50 (2102EP cells; 48 h) was 10.5 nM, the IC50 (2102EP cells; 72 h) was 6.1 nM and the “effect on cell cycle” value [1] was “only mild effects on the cell cycle”. It also gave an IC50 (NCCIT cells; 24 h) of 90.6 nM, an IC50 (NCCIT cells; 48 h) of 40.7 nM and an IC50 (NCCIT cells; 72 h) of 6.5 nM. It also gave an IC50 (TCam2 cells; TCam2, 24 h) of 216 nM, an IC50 (TCam2 cells; TCam2, 48 h) of 60 nM and an IC50 (TCam2 cells; TCam2, 72 h) of 16.1 nM. The “fold change in apoptotic cells” value [3] was “up to 3.3 fold”.

— article PMC8997165, “Transcriptional CDK Inhibitors as Potential Treatment Option for Testicular Germ Cell Tumors” (Cancers, 2022)
